The series in a line: Solubility of peptide in the phosphate buffer solution used for immobilization. Format: physicochemical. The note with it: phosphate buffer solution (0.02 mol/liter) of pH 7.4. Here is the method:
• (a) In 50 ml of dioxane obtained by distillation in the presence of sodium metal, 10 g of cellulose particles (marketed by Seikagaku Kogyo Co., Ltd. under the tradename "CM-Cellulofine CH") were suspended. In the suspension, 0.5 g of N-hydroxysuccinimide and 1.0 g of dicyclohexylcarbodiimide added thereto were shaken overnight at room temperature. The resultant mixture was washed with a phosphate buffer solution (0.02 mol/liter) of pH 7.4 and suction filtered. The particles consequently obtained and 20 ml of a phosphate buffer solution (0.02 mol/liter) of pH 7.4 containing 20 mg of the peptide of Example 1 added thereto were stirred overnight at a temperature of 4°C. The mixture consequently obtained was suction filtered. […] Thus, about 10 g of cellulose particles (the adsorbent not heat treated) having immobilized thereon 20 mg of the peptide of Example 1 were obtained. • (b) In 5-ml aliquots of a phosphate buffer solution (0.02 mol/liter) of pH 7.4 containing sodium chloride in a concentration of 0.15 mol/liter, the peptide-immobilized cellulose particles obtained as described above were suspended in a unit amount of 1 g. […]

As for “H-Leu-Leu-Gly-Trp-Lys-His-Trp-Val-Tyr-Tyr-Thr- C y s - C^y s -Pro-Asp-Thr-Pro-Tyr-Leu-Asp-OH [Referential Example 2]”, the “solubility in the phosphate buffer solution” value is reported as “low solubility”.
